From patent US8343999B2, “Thiazolyl compounds useful as kinase inhibitors” (Bristol-Myers Squibb Company, priority 2007, dated 2013)

How the values were obtained:
IGF1-receptor = IGF1-receptor (Homo sapiens, UniProt P08069); assay: IGF1-Receptor Tyrosine Kinase Assay (Caliper LabChip, fluoresceinated IGF1R substrate peptide); type: biochemical; settings: In vitro kinase data; ATP 25 μM, IGF1-Receptor 14 nM; read-out: IGF-1R IC50
Description: D. IGF1-Receptor Tyrosine Kinase Assay
The assays were performed in U-bottom 384-well plates. The final assay volume was 30 μl prepared from 15 μl additions of enzyme and substrates (fluoresceinated IGF1R substrate peptide and ATP) and test compounds in assay buffer (100 mM HEPES pH 7.4, 10 mM MnCl2, 0.015% Brij35 and 4 mM DTT). The reaction was initiated by the combination of IGF1-receptor with substrates and test compounds. The reaction was incubated at room temperature for 60 min. and terminated by adding 30 μl of 35 mM EDTA to each sample. The reaction mixture was analyzed on the Caliper LabChip 3000 by electrophoretic separation of the fluorescent substrate and phosphorylated product. Inhibition data were calculated by comparison to no enzyme control reactions for 100% inhibition and vehicle-only reactions for 0% inhibition. The final concentration of reagents in the assays is ATP, 25 μM; FL-peptide, 1.5 μM; IGF1-Receptor, 14 nM; and DMSO, 1.6%. Dose response curves were generated to determine the concentration required inhibiting 50% of kinase activity (IC50). Compounds were dissolved at 10 mM in dimethylsulfoxide (DMSO) and evaluated at eleven concentrations, each in duplicate. IC50 values were derived by non-linear regression analysis.
(§1) Compounds described herein were tested in the above assay.

IGF1R-Sal tumors = assay: IGF-1R Sal Tumor Model (tumor xenograft in nude mice); type: in vivo; settings: qd, orally for 4 consecutive days, nude mice bearing IGF1R-Sal tumors
Description: P. IGF-1R Sal Tumor Model
A salivary gland adenocarcinoma that developed spontaneously in a transgenic mouse (MCI-19) was excised and cut into fragments of about 20 mg. Tumor fragments were implanted s.c. into the ventral thoracic region of a group of six female, athymic BALB/c nu/nu mice (Harley Sprague-Dawley, Indianapolis, Ind.), using a 13-gauge trocar. Once established, the salivary gland-derived tumor line was designated IGF1R-Sal and was propagated as a tumor xenograft in nude mice. Tumors were passaged every 2 weeks, at which time the tumor reached f500 to 1,000 mm3 in size. For treatment studies, nude micebearing IGF1R-Sal tumors of about 100 mm3 in size were sorted into groups of five for treatment with vehicle (80% polyethylene glycol 400 in water) alone or the test article. Compounds were administered either on a bid schedule (oral doses 8 hours apart) or on a once a day schedule orally (qd) for 4 consecutive days. Tumors were measured at the start and end of treatment. Activity was measured as % tumor growth inhibition (% TGI). The % TGI was determined using the following formula (Ct−Tt)/(Ct−Co) where Ct is defined as the median tumor size of the control group at the end of treatment, Co is defined as the median tumor size of the control group at the start of treatment, and Tt is defined as the median tumor size of the treated group at the end of treatment.
as §1

Chain of IGF1-receptor (P08069 31-1367): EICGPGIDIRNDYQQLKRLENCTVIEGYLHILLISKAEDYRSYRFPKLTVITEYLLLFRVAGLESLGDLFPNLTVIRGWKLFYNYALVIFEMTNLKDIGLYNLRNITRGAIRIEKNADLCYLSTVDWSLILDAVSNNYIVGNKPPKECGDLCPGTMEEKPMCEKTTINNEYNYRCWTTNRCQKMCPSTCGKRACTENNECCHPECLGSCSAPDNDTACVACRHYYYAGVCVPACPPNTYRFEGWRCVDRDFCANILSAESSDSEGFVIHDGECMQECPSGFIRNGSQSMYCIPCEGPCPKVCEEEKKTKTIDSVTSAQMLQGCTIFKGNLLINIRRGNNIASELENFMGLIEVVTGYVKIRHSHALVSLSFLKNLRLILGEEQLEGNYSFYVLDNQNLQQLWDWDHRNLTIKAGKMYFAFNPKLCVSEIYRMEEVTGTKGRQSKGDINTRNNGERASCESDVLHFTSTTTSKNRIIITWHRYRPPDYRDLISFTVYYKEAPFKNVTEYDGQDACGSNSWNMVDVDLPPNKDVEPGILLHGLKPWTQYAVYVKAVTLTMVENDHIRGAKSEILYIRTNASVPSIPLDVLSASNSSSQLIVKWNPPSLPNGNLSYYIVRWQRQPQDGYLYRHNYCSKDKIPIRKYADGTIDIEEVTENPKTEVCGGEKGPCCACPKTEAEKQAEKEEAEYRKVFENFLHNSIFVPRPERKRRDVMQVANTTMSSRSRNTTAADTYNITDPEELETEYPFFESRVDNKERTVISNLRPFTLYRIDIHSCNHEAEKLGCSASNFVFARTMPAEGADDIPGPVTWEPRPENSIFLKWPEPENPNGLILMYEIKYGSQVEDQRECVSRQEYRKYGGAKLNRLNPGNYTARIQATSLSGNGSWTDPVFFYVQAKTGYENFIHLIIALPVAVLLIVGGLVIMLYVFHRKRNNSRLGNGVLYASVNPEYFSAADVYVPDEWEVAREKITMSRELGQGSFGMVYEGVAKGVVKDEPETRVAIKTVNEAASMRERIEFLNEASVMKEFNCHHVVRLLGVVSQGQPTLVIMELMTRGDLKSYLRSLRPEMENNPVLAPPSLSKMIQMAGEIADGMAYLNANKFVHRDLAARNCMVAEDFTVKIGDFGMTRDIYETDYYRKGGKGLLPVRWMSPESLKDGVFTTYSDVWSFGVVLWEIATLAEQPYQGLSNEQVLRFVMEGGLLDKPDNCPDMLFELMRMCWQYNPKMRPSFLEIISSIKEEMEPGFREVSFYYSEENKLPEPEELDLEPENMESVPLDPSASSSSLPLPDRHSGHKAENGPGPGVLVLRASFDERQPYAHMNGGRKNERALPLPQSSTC

SMILES | IC50 (IGF1-receptor) [nM] | other results
Cc1ccnc(Nc2ncc(Sc3ccnc(C(=O)NCC4(c5ccccc5)CCN(C)CC4)c3F)s2)c1 [Example 2, 3-Fluoro-N-((1-methyl-4-phenylpiperidin-4-yl)methyl)-4-(2-(4-methylpyridin-2-ylamino)thiazol-5-ylthio)picolinamide] | 9 | % TGI (IGF1R-Sal tumors; 12.5 mg/kg): 107%
Cc1ccnc(Nc2ncc(Sc3ccnc(C(=O)NCC4(c5ccccc5)CCN(CCO)CC4)c3F)s2)c1 [Example 5, 3-Fluoro-N-((1-(2-hydroxyethyl)-4-phenylpiperidin-4-yl)methyl)-4-(2-(4-methylpyridin-2-ylamino)thiazol-5-ylthio)picolinamide] | 3 | % TGI (IGF1R-Sal tumors; 12.5 mg/kg): 102%
Cc1ccnc(Nc2ncc(Sc3ccnc(C(=O)NCC4(c5ccccc5)CCNCC4)c3F)s2)c1 [Example 11, 3-Fluoro-4-(2-(4-methylpyridin-2-ylamino)thiazol-5-ylthio)-N-((4-phenylpiperidin-4-yl)methyl)picolinamide] | 4 | % TGI (IGF1R-Sal tumors; 12.5 mg/kg): 19%
Cc1ccnc(Nc2ncc(Sc3ccnc(C(=O)NCC4(c5ccccc5)CCN(C(=O)CN(C)C)CC4)c3F)s2)c1 [Example 12, N-((1-(2-(dimethylamino)acetyl)-4-phenylpiperidin-4-yl)methyl)-3-fluoro-4-(2-(4-methylpyridin-2-ylamino)thiazol-5-ylthio)picolinamide] | 6 | % TGI (IGF1R-Sal tumors; 12.5 mg/kg): 92%
Cc1ccnc(Nc2ncc(Sc3ccnc(C(=O)NCC4(c5ccccc5)CCN(C(=O)c5cccnc5)CC4)c3F)s2)c1 [Example 18, 3-Fluoro-4-(2-(4-methylpyridin-2-ylamino)thiazol-5-ylthio)-N-((1-nicotinoyl-4-phenylpiperidin-4-yl)methyl)picolinamide] | 1 | –
CC(=O)N1CCC(CNC(=O)c2nccc(Sc3cnc(Nc4cc(C)ccn4)s3)c2F)(c2ccccc2)CC1 [Example 22, N-((1-acetyl-4-phenylpiperidin-4-yl)methyl)-3-fluoro-4-(2-(4-methylpyridin-2-ylamino)thiazol-5-ylthio)picolinamide] | 3 | –
Cc1ccnc(Nc2ncc(Sc3ccnc(C(=O)NCC4(c5ccccc5)CCN(S(C)(=O)=O)CC4)c3F)s2)c1 [Example 24, 3-Fluoro-4-(2-(4-methylpyridin-2-ylamino)thiazol-5-ylthio)-N-((1-(methylsulfonyl)-4-phenylpiperidin-4-yl)methyl)picolinamide] | 1 | –
Cc1ccnc(Nc2ncc(Sc3ccnc(C(=O)NCC4(c5ccccc5)CCN(CCC#N)CC4)c3F)s2)c1 [Example 33, N-((1-(2-cyanoethyl)-4-phenylpiperidin-4-yl)methyl)-3-fluoro-4-(2-(4-methylpyridin-2-ylamino)thiazol-5-ylthio)picolinamide] | 320 | –
Cc1ccnc(Nc2ncc(Sc3ccnc(C(=O)NCC4(C5CCCCC5)CCN(C(=O)OC(C)(C)C)CC4)c3F)s2)c1 [Example 44, tert-butyl 4-cyclohexyl-4-((3-fluoro-4-(2-(4-methylpyridin-2-ylamino)thiazol-5-ylthio)picolinamido)methyl)piperidine-1-carboxylate] | 25000 | –
Cc1ccnc(Nc2ncc(Sc3ccnc(C(=O)NCC4(c5ccccn5)CCN(CCO)CC4)c3F)s2)c1 [Example 58, 3-fluoro-N-((1-(2-hydroxyethyl)-4-(pyridin-2-yl)piperidin-4-yl)methyl)-4-(2-(4-methylpyridin-2-ylamino)thiazol-5-ylthio)picolinamide] | 3 | –
Cc1ccnc(Nc2ncc(Sc3ccnc(C(=O)NCC4(C5CCCCC5)CCN(C[C@H](O)CO)CC4)c3F)s2)c1 [Example 74, (S)—N-((4-cyclohexyl-1-(2,3-dihydroxypropyl)piperidin-4-yl)methyl)-3-fluoro-4-(2-(4-methylpyridin-2-ylamino)thiazol-5-ylthio)picolinamide] | 9 | % TGI (IGF1R-Sal tumors; 50 mg/kg): 100%
Cc1ccnc(Nc2ncc(Sc3ccnc(C(=O)NCC4(c5ccc(F)cc5F)CCN(C[C@H](O)CO)CC4)c3F)s2)c1 [Example 77, (S)—N-((4-(2,4-difluorophenyl)-1-(2,3-dihydroxypropyl)piperidin-4-yl)methyl)-3-fluoro-4-(2-(4-methylpyridin-2-ylamino)thiazol-5-ylthio)picolinamide] | 9 | % TGI (IGF1R-Sal tumors; 25 mg/kg): 114%
COCCOC(=O)N1CCC(CNC(=O)c2nccc(Sc3cnc(Nc4cc(C)ccn4)s3)c2F)(c2ccc(Cl)c(Cl)c2)CC1 [Example 86, 2-methoxyethyl 4-(3,4-dichlorophenyl)-4-((3-fluoro-4-(2-(4-methylpyridin-2-ylamino)thiazol-5-ylthio)picolinamido)methyl)piperidine-1-carboxylate] | 5690 | –
COC(=O)N1CCC(CNC(=O)c2nccc(Sc3cnc(Nc4cc(C)ccn4)s3)c2F)(c2ccccn2)CC1 [Example 87, Methyl 4-((3-fluoro-4-(2-(4-methylpyridin-2-ylamino)thiazol-5-ylthio)picolinamido)methyl)-4-(pyridin-2-yl)piperidine-1-carboxylate] | 423 | –
COCCOC(=O)N1CCC(CNC(=O)c2nccc(Sc3cnc(Nc4cc(C)ccn4)s3)c2F)(c2ccccn2)CC1 [Example 88, 2-Methoxyethyl 4-((3-fluoro-4-(2-(4-methylpyridin-2-ylamino)thiazol-5-ylthio)picolinamido)methyl)-4-(pyridin-2-yl)piperidine-1-carboxylate] | 349 | –
Cc1ccnc(Nc2ncc(Sc3ccnc(C(=O)NCC4(c5ccccc5)CCN(C(=O)N(C)C)CC4)c3F)s2)c1 [Example 89, N-((1-(dimethylcarbamoyl)-4-phenylpiperidin-4-yl)methyl)-3-fluoro-4-(2-(4-methylpyridin-2-ylamino)thiazol-5-ylthio)picolinamide] | 358 | –
Cc1ccnc(Nc2ncc(Sc3ccnc(C(=O)NCC4(c5ccccc5)CCN(C(=O)N5CCOCC5)CC4)c3F)s2)c1 [Example 90, 3-Fluoro-4-(2-(4-methylpyridin-2-ylamino)thiazol-5-ylthio)-N-((1-(morpholine-4-carbonyl)-4-phenylpiperidin-4-yl)methyl)picolinamide] | 311 | –
Cc1ccnc(Nc2ncc(Sc3ccnc(C(=O)NCC4(c5ccccc5)CCN(C(=O)c5ccc(Cl)c(S(N)(=O)=O)c5)CC4)c3F)s2)c1 [Example 92, N-((1-(4-chloro-3-sulfamoylbenzoyl)-4-phenylpiperidin-4-yl)methyl)-3-fluoro-4-(2-(4-methylpyridin-2-ylamino)thiazol-5-ylthio)picolinamide] | 2000 | –
Cc1ccnc(Nc2ncc(Sc3ccnc(C(=O)NCC4(c5ccccc5)CCN(C(=O)c5cc(S(N)(=O)=O)c(F)cc5Cl)CC4)c3F)s2)c1 [Example 93, N-((1-(2-chloro-4-fluoro-5-sulfamoylbenzoyl)-4-phenylpiperidin-4-yl)methyl)-3-fluoro-4-(2-(4-methylpyridin-2-ylamino)thiazol-5-ylthio)picolinamide] | 3260 | –
Cc1ccnc(Nc2ncc(Sc3ccnc(C(=O)NCC4(c5ccccc5)CCN(C(=O)C(C)(C)N)CC4)c3F)s2)c1 [Example 95, N-((1-(2-amino-2-methylpropanoyl)-4-phenylpiperidin-4-yl)methyl)-3-fluoro-4-(2-(4-methylpyridin-2-ylamino)thiazol-5-ylthio)picolinamide] | 4520 | –
